Assay results from the supplement of paper PMC10307832.

What was measured:
Assay in all cases: relative viability (nuclei count vs DMSO), 5 days (fraction); higher = more cells survive
[1] = compound: Cc1ccc(NC(=O)c2ccc(CN3CCN(C)CC3)cc2)cc1Nc1nccc(-c2cccnc2)n1 [Imatinib] + N=C(N)NC(=N)NCCc1ccccc1 [Phenformin] (partner 250 µM)
Procedure, shortened: (§1)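 Cells from lung cancer lines were seeded into 1536-well plates and, one day later, dosed by pin tool. Treatments were either a single drug or a fixed dose of an anchor drug with five library-drug doses (not always all listed) in √10 steps. After 5 days, nuclei were stained in a one-step fixation (final 0.05% Triton X-100, 1% formaldehyde, 1 ug/ml Hoechst) and counted on 4× images, and relative viability is the treated-to-vehicle nuclei ratio, as the median of duplicate plates.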

[2] = compound: Cc1ccc(NC(=O)c2ccc(CN3CCN(C)CC3)cc2)cc1Nc1nccc(-c2cccnc2)n1 [Imatinib] + O=C(CCCCCCC(=O)Nc1ccccc1)NO [Vorinostat] (partner 1 µM)
Procedure, shortened: as §1

[3] = compound: Cc1ccc(NC(=O)c2ccc(CN3CCN(C)CC3)cc2)cc1Nc1nccc(-c2cccnc2)n1 [Imatinib] + COc1cc2c(Oc3ccc(NC(=O)C4(C(=O)Nc5ccc(F)cc5)CC4)cc3F)ccnc2cc1OCCCN1CCOCC1 [Foretinib] (partner 0.25 µM)
Procedure, shortened: as §1

[4] = compound: Cc1ccc(NC(=O)c2ccc(CN3CCN(C)CC3)cc2)cc1Nc1nccc(-c2cccnc2)n1 [Imatinib] + CC(=O)Nc1cccc(-n2c(=O)n(C3CC3)c(=O)c3c(Nc4ccc(I)cc4F)n(C)c(=O)c(C)c32)c1 [Trametinib] (partner 0.02 µM)
Procedure, shortened: as §1

## PC-14
[1]; first compound 0.02 µM
  relative viability: 0.626
[1]; first compound 0.06325 µM
  relative viability: 0.802
[1]; first compound 0.2 µM
  relative viability: 0.586
[1]; first compound 0.6325 µM
  relative viability: 0.374
[1]; first compound 2 µM
  relative viability: 0.656
[2]; first compound 0.02 µM
  relative viability: 0.902
[2]; first compound 0.06325 µM
  relative viability: 0.472
[2]; first compound 0.2 µM
  relative viability: 0.8
[2]; first compound 0.6325 µM
  relative viability: 0.56
[2]; first compound 2 µM
  relative viability: 0.791
[3]; first compound 0.02 µM
  relative viability: 0.934
[3]; first compound 0.06325 µM
  relative viability: 0.84
[3]; first compound 0.2 µM
  relative viability: 1.08
[3]; first compound 0.6325 µM
  relative viability: 0.934
[3]; first compound 2 µM
  relative viability: 0.983
[4]; first compound 0.02 µM
  relative viability: 1.01
[4]; first compound 0.06325 µM
  relative viability: 1.18
[4]; first compound 0.2 µM
  relative viability: 1.11
[4]; first compound 0.6325 µM
  relative viability: 0.765
[4]; first compound 2 µM
  relative viability: 0.897

## RERF-LC-KJ
[1]; first compound 0.02 µM
  relative viability: 0.49
[1]; first compound 0.06325 µM
  relative viability: 0.472
[1]; first compound 0.2 µM
  relative viability: 0.432
[1]; first compound 0.6325 µM
  relative viability: 0.407
[1]; first compound 2 µM
  relative viability: 0.428
[2]; first compound 0.02 µM
  relative viability: 0.698
[2]; first compound 0.06325 µM
  relative viability: 0.535
[2]; first compound 0.6325 µM
  relative viability: 0.662
[2]; first compound 2 µM
  relative viability: 0.683
[3]; first compound 0.02 µM
  relative viability: 0.909
[3]; first compound 0.06325 µM
  relative viability: 0.757
[3]; first compound 0.6325 µM
  relative viability: 0.794
[3]; first compound 2 µM
  relative viability: 0.834
[4]; first compound 0.02 µM
  relative viability: 0.806
[4]; first compound 0.06325 µM
  relative viability: 0.97
[4]; first compound 0.2 µM
  relative viability: 0.936
[4]; first compound 0.6325 µM
  relative viability: 0.909
[4]; first compound 2 µM
  relative viability: 0.771

## SK-LU-1
[1]; first compound 0.02 µM
  relative viability: 0.56
[1]; first compound 0.06325 µM
  relative viability: 0.499
[1]; first compound 0.2 µM
  relative viability: 0.499
[1]; first compound 0.6325 µM
  relative viability: 0.472
[1]; first compound 2 µM
  relative viability: 0.475
[2]; first compound 0.02 µM
  relative viability: 0.87
[2]; first compound 0.06325 µM
  relative viability: 0.832
[2]; first compound 0.2 µM
  relative viability: 0.798
[2]; first compound 0.6325 µM
  relative viability: 0.793
[2]; first compound 2 µM
  relative viability: 0.748
[3]; first compound 0.02 µM
  relative viability: 0.978
[3]; first compound 0.06325 µM
  relative viability: 0.888
[3]; first compound 0.2 µM
  relative viability: 0.892
[3]; first compound 0.6325 µM
  relative viability: 0.73
[3]; first compound 2 µM
  relative viability: 0.869
[4]; first compound 0.02 µM
  relative viability: 0.465
[4]; first compound 0.06325 µM
  relative viability: 0.485
[4]; first compound 0.2 µM
  relative viability: 0.52
[4]; first compound 0.6325 µM
  relative viability: 0.514
[4]; first compound 2 µM
  relative viability: 0.529

## SK-MES-1
[1]; first compound 0.02 µM
  relative viability: 0.72
[1]; first compound 0.06325 µM
  relative viability: 0.686
[1]; first compound 0.2 µM
  relative viability: 0.725
[1]; first compound 0.6325 µM
  relative viability: 0.619
[1]; first compound 2 µM
  relative viability: 0.577
[2]; first compound 0.06325 µM
  relative viability: 1.37
[2]; first compound 0.2 µM
  relative viability: 1.29
[2]; first compound 2 µM
  relative viability: 1.09
[3]; first compound 0.02 µM
  relative viability: 0.957
[3]; first compound 0.06325 µM
  relative viability: 0.915
[3]; first compound 0.2 µM
  relative viability: 1.03
[3]; first compound 0.6325 µM
  relative viability: 0.786
[3]; first compound 2 µM
  relative viability: 0.963
[4]; first compound 0.02 µM
  relative viability: 0.642
[4]; first compound 0.06325 µM
  relative viability: 0.663
[4]; first compound 0.2 µM
  relative viability: 0.589
[4]; first compound 0.6325 µM
  relative viability: 0.587
[4]; first compound 2 µM
  relative viability: 0.588

## SW 900
[1]; first compound 0.02 µM
  relative viability: 0.57
[1]; first compound 0.06325 µM
  relative viability: 0.474
[1]; first compound 0.2 µM
  relative viability: 0.821
[1]; first compound 0.6325 µM
  relative viability: 0.578
[1]; first compound 2 µM
  relative viability: 0.499
[2]; first compound 0.02 µM
  relative viability: 0.615
[2]; first compound 0.06325 µM
  relative viability: 0.564
[2]; first compound 0.2 µM
  relative viability: 0.538
[2]; first compound 0.6325 µM
  relative viability: 0.654
[2]; first compound 2 µM
  relative viability: 0.409
[3]; first compound 0.02 µM
  relative viability: 0.879
[3]; first compound 0.06325 µM
  relative viability: 1.04
[3]; first compound 0.2 µM
  relative viability: 1.09
[3]; first compound 0.6325 µM
  relative viability: 0.717
[3]; first compound 2 µM
  relative viability: 1.04
[4]; first compound 0.02 µM
  relative viability: 0.776
[4]; first compound 0.06325 µM
  relative viability: 0.625
[4]; first compound 0.2 µM
  relative viability: 0.641
[4]; first compound 0.6325 µM
  relative viability: 0.756
[4]; first compound 2 µM
  relative viability: 0.76

## SW 1573
[1]; first compound 0.02 µM
  relative viability: 0.325
[1]; first compound 0.06325 µM
  relative viability: 0.365
[1]; first compound 0.2 µM
  relative viability: 0.361
[1]; first compound 0.6325 µM
  relative viability: 0.352
[1]; first compound 2 µM
  relative viability: 0.335
[2]; first compound 0.02 µM
  relative viability: 0.802
[2]; first compound 0.06325 µM
  relative viability: 0.392
[2]; first compound 0.2 µM
  relative viability: 0.973
[2]; first compound 0.6325 µM
  relative viability: 0.9
[2]; first compound 2 µM
  relative viability: 0.709
[3]; first compound 0.02 µM
  relative viability: 1.04
[3]; first compound 0.06325 µM
  relative viability: 0.469
[3]; first compound 0.2 µM
  relative viability: 1.03
[3]; first compound 0.6325 µM
  relative viability: 0.893
[3]; first compound 2 µM
  relative viability: 0.908
[4]; first compound 0.02 µM
  relative viability: 0.614
[4]; first compound 0.06325 µM
  relative viability: 0.565
[4]; first compound 0.2 µM
  relative viability: 0.619
[4]; first compound 0.6325 µM
  relative viability: 0.618
[4]; first compound 2 µM
  relative viability: 0.631

## UMC-11
[1]; first compound 0.02 µM
  relative viability: 0.331
[1]; first compound 0.06325 µM
  relative viability: 0.327
[1]; first compound 0.2 µM
  relative viability: 0.322
[1]; first compound 0.6325 µM
  relative viability: 0.332
[1]; first compound 2 µM
  relative viability: 0.294
[2]; first compound 0.02 µM
  relative viability: 0.35
[2]; first compound 0.06325 µM
  relative viability: 0.377
[2]; first compound 0.2 µM
  relative viability: 0.36
[2]; first compound 0.6325 µM
  relative viability: 0.412
[2]; first compound 2 µM
  relative viability: 0.369
[3]; first compound 0.02 µM
  relative viability: 0.981
[3]; first compound 0.06325 µM
  relative viability: 1.31
[3]; first compound 0.2 µM
  relative viability: 0.973
[3]; first compound 0.6325 µM
  relative viability: 1.14
[3]; first compound 2 µM
  relative viability: 1.11
[4]; first compound 0.02 µM
  relative viability: 0.706
[4]; first compound 0.06325 µM
  relative viability: 0.736
[4]; first compound 0.2 µM
  relative viability: 0.643
[4]; first compound 0.6325 µM
  relative viability: 0.896
[4]; first compound 2 µM
  relative viability: 0.717
